Data taken from ChEMBL document CHEMBL5154798, “Structure-based discovery of receptor tyrosine kinase AXL degraders with excellent anti-tumor activity by selectively degrading AXL and inducing methuosis” (Eur J Med Chem, 2022).
Activity calls are given as the source filed them. The rule behind the calls is not given here.

Legend:
[1] = Half-life in male Sprague-Dawley rat at 2 mg/kg, iv administered as single dose measured by LC/MS/MS analysis; format: ADME, organism-based; conditions: in vivo
4T1 [2] = experiment: Induction of cytoplasmic vacuolation in mouse 4T1 cells at 0.5 uM; format: functional, cell-based
MDA-MB-231 [3] = experiment: Antiproliferative activity against human MDA-MB-231 cells highly expressing AXL after 72 hrs by MTT assay; conditions: MDA-MB-231, 72 h
MDA-MB-231 [4] = experiment: Induction of cytoplasmic vacuolation in human MDA-MB-231 cells at 0.5 uM; format: functional, cell-based
Mus musculus = experiment: In vivo induction of CRBN-mediated AXL degradation in mouse measured after 6 hrs; format: functional, organism-based
[5] = AUC (0 to t) in male Sprague-Dawley rat at 20 mg/kg, po administered as single dose measured by LC/MS/MS analysis; format: ADME, organism-based; design: dose 20 mg/kg, route po; conditions: in vivo
[6] = Tmax in male Sprague-Dawley rat at 20 mg/kg, po administered as single dose measured by LC/MS/MS analysis; format: ADME, organism-based; conditions: in vivo
MDA-MB-231 [7] = experiment: Induction of macropinocytosis in human MDA-MB-231 cells measured by LysoTracker staining based fluorescence microscopy; format: functional, cell-based
[8] = Tmax in male Sprague-Dawley rat at 2 mg/kg, iv administered as single dose measured by LC/MS/MS analysis; format: ADME, organism-based; conditions: in vivo
MDA-MB-231 [9] = experiment: Induction of macropinocytosis in human MDA-MB-231 cells assessed as co-localization of Rab7 with lucifer yellow measured by immunofluorescence assay; format: functional, cell-based
MDA-MB-231 [10] = experiment: Induction of macropinocytosis in human MDA-MB-231 cells assessed as co-localization of LAMP-1 with lucifer yellow measured by immunofluorescence assay; format: functional, cell-based
[11] = Cytotoxicity against human GES1 cells after 72 hrs by MTT assay; format: toxicity, cell-based
[12] = Systemic toxicity in female BALB/c nude mouse xenografted with human MDA-MB-231 cells assessed as necrosis of heart tissue at 25 mg/kg, ip; format: organism-based; conditions: in vivo
4T1 [13] = experiment: Antiproliferative activity against mouse 4T1 cells highly expressing AXL after 72 hrs by MTT assay; conditions: 4T1, 72 h
[14] = Systemic toxicity in female BALB/c nude mouse xenografted with human MDA-MB-231 cells assessed as inflammatory cell infiltration in kidney at 25 mg/kg, ip; format: organism-based; conditions: in vivo
[15] = AUC (0 to t) in male Sprague-Dawley rat at 2 mg/kg, iv administered as single dose measured by LC/MS/MS analysis; format: ADME, organism-based; design: dose 2 mg/kg, route iv; conditions: in vivo
[16] = Systemic toxicity in female BALB/c nude mouse xenografted with human MDA-MB-231 cells assessed as inflammatory cell infiltration in spleen at 25 mg/kg, ip; format: organism-based; conditions: in vivo
[17] = Systemic toxicity in female BALB/c nude mouse xenografted with human MDA-MB-231 cells assessed as inflammatory cell infiltration in heart at 25 mg/kg, ip; format: organism-based; conditions: in vivo
[18] = Systemic toxicity in female BALB/c nude mouse xenografted with human MDA-MB-231 cells assessed as inflammatory cell infiltration in lung at 25 mg/kg, ip; format: organism-based; conditions: in vivo
[19] = Systemic toxicity in female BALB/c nude mouse xenografted with human MDA-MB-231 cells assessed as necrosis of kidney tissue at 25 mg/kg, ip; format: organism-based; conditions: in vivo
[20] = Clearance in male Sprague-Dawley rat at 2 mg/kg, iv administered as single dose measured by LC/MS/MS analysis; format: ADME, organism-based; conditions: in vivo
[21] = Systemic toxicity in female BALB/c nude mouse xenografted with human MDA-MB-231 cells assessed as inflammatory cell infiltration in liver at 25 mg/kg, ip; format: organism-based; conditions: in vivo
[22] = Systemic toxicity in female BALB/c nude mouse xenografted with human MDA-MB-231 cells assessed as necrosis of liver tissue at 25 mg/kg, ip; format: organism-based; conditions: in vivo
[23] = Systemic toxicity in female BALB/c nude mouse xenografted with human MDA-MB-231 cells assessed as necrosis of spleen tissue at 25 mg/kg, ip; format: organism-based; conditions: in vivo
[24] = Toxicity in female BALB/c nude mouse xenografted with human MDA-MB-231 cells assessed as change in body wieght at 25 mg/kg, ip; format: organism-based; conditions: in vivo
[25] = Oral bioavailability in male Sprague-Dawley rat at 20 mg/kg administered as single dose measured by LC/MS/MS analysis; format: ADME, organism-based; conditions: in vivo
[26] = Systemic toxicity in female BALB/c nude mouse xenografted with human MDA-MB-231 cells assessed as necrosis of lung tissue at 25 mg/kg, ip; format: organism-based; conditions: in vivo
MDA-MB-231 [27] = experiment: Induction of macropinocytosis in human MDA-MB-231 cells measured by MitoTracker staining based fluorescence microscopy; format: functional, cell-based
[28] = Cytotoxicity against human MCF-10A cells after 72 hrs by MTT assay; format: toxicity, cell-based
MDA-MB-231 [29] = experiment: Antitumor activity against human MDA-MB-231 cells xenografted in female BALB/c nude mouse assessed as tumor growth inhibition at 25 mg/kg, ip; format: functional, organism-based
[30] = Cmax in male Sprague-Dawley rat at 2 mg/kg, iv administered as single dose measured by LC/MS/MS analysis; format: ADME, organism-based; design: dose 2 mg/kg, route iv; conditions: in vivo
[31] = Cmax in male Sprague-Dawley rat at 20 mg/kg, po administered as single dose measured by LC/MS/MS analysis; format: ADME, organism-based; design: dose 20 mg/kg, route po; conditions: in vivo
[32] = Half-life in male Sprague-Dawley rat at 20 mg/kg, po administered as single dose measured by LC/MS/MS analysis; format: ADME, organism-based; conditions: in vivo
MDA-MB-231 [33] = experiment: Induction of cytoplasmic vacuolation in human MDA-MB-231 cells at 1 uM in presence of 1 uM pan-caspase inhibitor Z-VAD-FMK; format: functional, cell-based

Row | SMILES | t1/2 [1] [h] | Activity (4T1 [2]) | IC50 (MDA-MB-231 [3]) [µM] | Activity (MDA-MB-231 [4]) | Activity (Mus musculus) | AUC(0-t) [5] [ng·h/mL] | Tmax [6] [h] | Activity (MDA-MB-231 [7]) | Tmax [8] [h] | Activity (MDA-MB-231 [9]) | Activity (MDA-MB-231 [10]) | IC50 at 72 h [11] [µM] | Activity [12] | IC50 (4T1 [13]) [µM] | Activity [14] | AUCt [15] [ng·h/mL] | Activity [16] | Activity [17] | Activity [18] | Activity [19] | other results
1 | Nc1nc(Nc2ccc(CNC(=O)CCCCCNc3cccc4c3CN(C3CCC(=O)NC3=O)C4=O)cc2)nn1-c1ccc(-c2ccccc2)nn1 (stereo not drawn) | 1.18 | Active | 6.23 | Active | Active | 3590 | 2.25 | Active | 0.82 | Active | Active | > 60 | Non-Toxic | 2.06 | Non-Toxic | 7581.3 | Non-Toxic | Non-Toxic | Non-Toxic | Non-Toxic | CL ([20]; iv, 2 mg/kg): 12 mL/min/kg; Activity [21]: Non-Toxic; Activity [22]: Non-Toxic; Activity [23]: Non-Toxic; Activity [24]: Non-Toxic; bioavailability [25]: 7.8%; Activity [26]: Non-Toxic; Activity (MDA-MB-231 [27]): Active; IC50 at 72 h [28]: > 60 µM; TGI (MDA-MB-231 [29]): Active; Cmax [30]: 279 ng/mL; Cmax [31]: 144 ng/mL; half-life [32]: 4.43 h; Activity (MDA-MB-231 [33]): Active
2 | Nc1nc(Nc2ccc(CNC(=O)CCCCCCCNc3cccc4c3CN(C3CCC(=O)NC3=O)C4=O)cc2)nn1-c1ccc(-c2ccccc2)nn1 (stereo not drawn) | 0.72 | Active | 10.3 | Active | Active | 865 | 1.89 | Active | 0.54 | Active | Active | > 60 | Non-Toxic | 5.53 | Non-Toxic | 2933.4 | Non-Toxic | Non-Toxic | Non-Toxic | Non-Toxic | clearance ([20]; male, Sprague-Dawley): 11.3 mL/min/kg; Activity [21]: Non-Toxic; Activity [22]: Non-Toxic; Activity [23]: Non-Toxic; Activity [24]: Non-Toxic; bioavailability [25]: 4.93%; Activity [26]: Non-Toxic; Activity (MDA-MB-231 [27]): Active; IC50 at 72 h [28]: > 60 µM; TGI (MDA-MB-231 [29]): Active; Cmax [30]: 166 ng/mL; Cmax [31]: 92 ng/mL; half-life [32]: 2.37 h; Activity (MDA-MB-231 [33]): Active
